From US7504117B2, “Extract of Nelumbinis Semen for the treatment of depression” (Purimed Co., Ltd., priority 2003, dated 2009)

Columns and labels:
Assay type in all cases: in vivo
[1] = system: CREB, BDNF and trkB genes; assay: Oligonucleotide microarray gene expression in cerebral frontal cortex; details: depression-induced animal
Description: Total RNA was isolated from the cerebral frontal cortex, and double-stranded cDNA was synthesized using the isolated RNA and an oligo (dT) 24-T7 primer. cRNA was synthesized by in vitro transcription using the synthesized cDNA, and was biotin-labeled and applied to an oligonucleotide microarray to determine gene expression patterns in each test group.

[2] = system: 5-HT and NE neurotransmitters; assay: 5-HT and NE levels in chronic CMS model by microdialysis and HPLC-ECD
Experimental: Also, according to a biochemical method, the therapeutic efficacy of a candidate drug was primarily examined by measuring changes in 5-HT and Norepinephrine (NE) levels in a chronic CMS model by microdialysis and HPLC-ECD. Catecholamine content was measured using an HPLC system equipped with an electrochemical detector. A mobile phase containing 0.05 M monobasic sodium phosphate, 0.1 N sodium acetic acetate and 1% methanol was adjusted to pH 4.4 with a phosphate buffer for HPLC. […] was composed of a Supelcosil LC-8-DB 3-μm column (150×4.6 mm, Supelco, Bellefonte, Pa.) protected by an LC-18 guard column.

[3] = system: CREB, BDNF and trkB proteins; assay: Western blotting of CREB, BDNF and trkB proteins in rat cerebral frontal cortex
Experimental: Thirdly, an increase in the antidepressive markers, CREB, BDNF and trkB proteins, was examined in the rat cerebral frontal cortex by Western blotting, as follows. A behavioral test in rats was carried out for a period of three weeks, and the rats were administered with each drug. The brain frontal cortex was excised and centrifuged, and the supernatant was recovered. Each sample was mixed with a SDS-PAGE sample buffer to reduce proteins and boiled to denature proteins. Samples were loaded onto a SDS-PAGE (sodium dodecyl sulfate poly acrylamide gel electrophoresis) gel and run at 100-200 V for about 1-2 hrs. The SDS-PAGE gel was transferred onto a PVDF or nitrocellulose membrane by electro-transferation. The membrane was incubated with a primary antibody for a target protein, washed and incubated with a secondary antibody. Then, the target protein was detected by an enhanced chemiluminescent method.

[4] = system: CREB, BDNF and trkB proteins; assay: 2-DE of CREB, BDNF and trkB proteins in rat cerebral frontal cortex
Experimental: Fourthly, an increase in the antidepressive markers, CREB, BDNF and trkB proteins, was examined in the rat cerebral frontal cortex by 2-DE, as follows. A behavioral test in rats was carried out for a period of three weeks, and the rats were administered with each drug. The brain frontal cortex was excised and centrifuged, and the supernatant was recovered. Each sample was mixed with an IEF sample buffer and loaded onto an IEF gel. Proteins were separated according to isoelectric point by isoelectric focusing (IEF) in the first dimension and according to molecular weight by SDS-PAGE at 100-200 V for about 1-2 hrs in the second dimension. The gel was stained by a Gel-Code Blue staining method and evaluated for elevated or newly emerged proteins by the antidepressive substances. The elevated or newly emerged proteins by the antidepressive substances were subjected to mass spectrometry.

cortisol = assay: Urinary cortisol concentration (125I-cortisol assay) in rats; details: rat urine
Experimental: First, changes in concentrations of cortisol, which is a representative marker to determine whether the immune suppression has been overcome, according to administration of the Nelumbinis Semen extract were examined, as follows. After urine samples were collected from rats,
(1) 1.0 ml of urine was placed into a tube with a cap, 2.0 ml dichloromethane was added to the tube, and the tube was covered with the cap with caution;
(2) the mixture was vortexed for 5-10 min;
(3) the mixture was centrifuged at 1500×g (rpm), the upper layer was aspirated, and 50 μl of the lower layer were aliquotted into coated tubes;
(4) samples were evaporated for dryness.
Urinary cortisol concentrations were measured as follows.
(1) The coated tubes were individually labeled with NSB, Std (A-F), a control (CON6 No. 5) and sample numbers (for NSB, a green tube was used).
(2) 25 μl of each of NSB, Std(A-F), a control (CON6 No. 5) and samples was added to the corresponding tube (free cortisol was added to the completely dried coated tube, and 25 μl of Std. A was added to the NSB tube).
(3) 1.0 ml of ^125I-cortisol was added to the tubes, followed by mixing.
(4) The tubes were incubated in a water bath at 37° C. for 45 min and aspirated.
(5) After the content of the tubes was completely aspirated, radioactivity was measured for at least 1 min using a […].

IL-2 = assay: Blood IL-2 concentration (luminometric immunoassay) in rats; details: rat blood
Experimental: (1) 100 μl of assay diluent QD6-23 were aliquotted onto a microplate strip;
(2) 50 μl of each sample and a standard were aliquotted onto the strip;
(3) the strip was incubated with shaking at room temperature for 2 hrs;
(4) the strip was washed four times;
(5) 200 μl of an IL-2 conjugate was aliquotted onto the strip, and the strip was incubated with shaking at room temperature for 3 hrs;
(6) 200 μl of a substrate (luminol+hydrogen peroxide) was aliquotted onto the strip, and the strip was incubated at room temperature for 20-40 min;
(7) emitted light was measured using a luminometer; and
(8) IL-2 concentrations were determined using a standard quantitative curve.

WBC = WBC counting in rat blood (volume, conductivity, light scattering)
Experimental: Thirdly, changes in WBC cell number, which is a representative marker to determine whether the immune suppression has been overcome, according to administration of the Nelumbinis Semen extract, was examined, as follows. After blood samples were collected from rats, cell volume, conductivity and light scattering were measured.
Cell volume was measured according to the Coulter Principle, which is universally recognized as a reference method for sizing of volumes. An aperture between two electrodes is placed in a cell flow, and direct current flows between the electrodes. When WBC maintained at nearly natural states passes through the aperture, electrical resistance to the direct current flow increases, thus generating a voltage pulse being in proportion to cell volumes. The size of the pulse is one of the distinct features allowing determination of the type of WBC. However, to distinguish between two types of cells with similar size, a different phenotype allowing the distinction of two types of cells should be measured. For example, mature basophils and small lymphocytes are about 9-12 jjm in diameter, and immature prolymphocytes and mature neutrophils are 12-14 μm in diameter. Different types of cells with similar size are difficult to determine based on only their size, and thus, in this case, conductivity and light scattering are simultaneously measured. […]

lymphocytes = assay: Lymphocyte cell number in rat blood (automatic analyzer)
Description: Fourthly, changes in cell number of lymphocytes, which is a representative marker to determine whether the immune suppression has been overcome, according to administration of the Nelumbinis Semen extract, was examined as follows. After blood samples were collected from rats, changes in lymphocyte cell number were examined by the following method.
When diluted blood corpuscles are suspended in an electrolyte solution (Isoton sol.) that is a separate […], the electrolyte suspension of particles is suctioned for 4 sec through an aperture with a predetermined size. The aperture is placed between an internal electrode and an external electrode, and a current flows between the electrodes. When particles pass through the aperture between the two electrodes, resistance increases while voltage decreases. The difference between decreased voltage and ground voltage is expressed as height by a threshold circuit. The number of pulses indicates the number of particles, and the amplitude of pulses is in proportion to the volume of corpulscles.
2. Assay Method: Automatic Analyzer
3. Machine Used: ADVIA120, Bayer, USA

Question: Which “expression level of BDNF gene” value [1] does the source give for CNCCC(Oc1ccc(C(F)(F)F)cc1)c1ccccc1 (stereo not drawn) [Prozac, fluoxetine] here?
Answer: significantly increase

Question: And the “expression level of CREB gene” value [1]?
Answer: significantly increase

Question: And the “expression level of trkB gene” value [1]?
Answer: significantly increase

Question: And the “level of 5-HT” value [2]?
Answer: significantly increase

Question: What about the “level of NE” value [2] of the same compound?
Answer: significantly increase

Question: What about the “protein level of BDNF” value [3] of the same compound?
Answer: significantly increase

Question: What about the “protein level of CREB” value [3] of the same compound?
Answer: significantly increase

Question: What about the “protein level of trkB” value [3] of the same compound?
Answer: significantly increase

Question: And the “protein level of BDNF” value [4]?
Answer: significantly increase

Question: And the “protein level of CREB” value [4]?
Answer: significantly increase

Question: And the “protein level of trkB” value [4]?
Answer: significantly increase

Question: And the cortisol concentrations (cortisol)?
Answer: levels similar to a normal group

Question: What about the IL-2 concentrations (IL-2) of the same compound?
Answer: levels similar to a normal group

Question: What about the “cell number of WBC” value (WBC) of the same compound?
Answer: levels similar to a normal group

Question: What about the “cell number of lymphocytes” value (lymphocytes) of the same compound?
Answer: levels similar to a normal group
